Assay results: patent publication US20250003951A1, “METHOD AND COMPOSITION” (Oxford University Innovation Limited, priority 2021, published 2025)

Columns and labels:
Type in all cases: cell-based, human
[1] = tested on: activated (IFNγ+) CD4+ or CD8+ T cells from post-transplant PBMCs; test: IFNγ catch FACS sort and single cell RNA sequencing with V(D)J enrichment to identify antigen-specific TCR clones; conditions: for Size of expanded T cell clone in activated (IFNγ+) repertoire after peptide stimulation and IFNγ catch: figure legends FIG. 8-22, single cell V(D)J sequencing; for Clone size (percent repertoire): CD8 T cells, expanded TCR clone 1 following peptide stimulation
Excerpt: The following protocol was used to determine the sequence of TCRs recognising peptide 1 (SEQ ID NO: 1) or peptide 2 (SEQ ID NO: 2): • 1. Culture post-transplant blood with peptide (identified from IFNγ ELISpot screen) to enrich for antigen-specific T cells. • 2. After peptide stimulation, FACS sort activated (IFNγ+) T cells and control (IFNγ−) T cells. • 3. Single cell RNA sequencing with V (D) J enrichment. […]
The following protocol was used to determine the sequence of TCRs recognising the alloreactive peptide antigens set out in Table 3 above: • 1. Thaw post-transplant PBMCs from the patient from whom the peptide antigen was detected. Culture the cells with peptide, IL-2 and IL-7 for 12 days. • 2. Rest cells overnight. • 3. Stimulate cells with peptide for 6 hours. • 4. Stain cells for FACS using antibodies and IFNγ catch reagent. • 5. FACS sorting of activated (IFNγ+) CD4+ or CD8+ T cells and negative control (IFNγ−) populations. • 6. 10× Chromium single cell RNA sequencing with V (D) J enrichment.
T cells recognizing 18 of the 24 peptides set out in Table 3 (including PADI4) were detectable by FACS. Of these, 17 were detectable using IFNγ catch. Data are shown in Tables 4 and 5 below, and in FIGS. 8 to 23. In Table 5, clones were included that were (a) greater in size than the largest clone in the control repertoire, or (b)>10% of the repertoire, even if not larger than the largest clone in the control repertoire.

[2] = tested on: peptide-responsive T cells from post-transplant blood; test: Flow cytometry immunophenotyping of peptide-responsive T cells (IFNγ, TNFα, CD107a) after 12-day peptide culture and restimulation
Excerpt: (§1) FIG. 3: Characterisation of GvL T cell responses. a) IFNγ ELISpot results following stimulation of post-transplant PB with GvL peptide+/−antibodies blocking HLA pan-class I (W6/32), pan-class II (Tü39), HLA-DR (L243), -DQ (Tü169) and -DP (B7/21). Negative control without peptide (DMSO). b) Flow cytometry with intracellular cytokine staining showing % T cells positive for IFNγ, TNFα, CD107a after treatment with peptide vs no treatment. […] The generic workflow established in Example 1 was used to identify the antigenic basis of GvL in further patients. In brief, mismatched peptides identified by in silico prediction and mass spectrometry for each patient were screened for their ability to activate donor-derived T cells taken from the patient post-allo-SCT, using IFNγ ELISpot assays. HLA restriction was investigated using IFNγ ELISpots with HLA-blocking antibodies. The nature and frequency of peptide-responsive T cells (i.e. cells producing cytokines (IFNγ, TNFα) and expression of the degranulation marker (CD107a) following peptide contact) were assessed by culturing post-transplant blood with peptide for 12 days and then stimulating with the peptide. Responses were assessed by flow cytometry.

[3] = tested on: donor-derived T cells taken from the patient post-allo-SCT; test: IFNγ ELISpot with HLA-blocking antibodies (HLA restriction); conditions: for Restricting HLA allele: candidate alleles separated by /
Excerpt: as §1

[4] = Table 3, post-transplant blood cultured with peptide 12 days, then restimulated
[5] = Table 3, IFNγ ELISpots with HLA-blocking antibodies

Row | Sequence | Size of expanded T cell clone in activated (IFNγ+) repertoire after peptide stimulation and IFNγ catch [1] | CD4/CD8 responses [2, 4] | CD4/CD8 responses ([2]; Table 4) | Freq. of response (% IFNγ+ cells amongst CD4+ or CD8+ by FACS) ([2]; Table 4) | Frequency of response (% IFN* cells amongst CD4+ or CD8+ by FACS) [2, 4] | HLA restriction [3, 5] | Restricting HLA allele ([3]; Table 3) | HLA restriction ([3]; Table 4) | Clone size (percent repertoire) [1]
1 | VRIALALKGIDYETVPINLI (listed as Homo sapiens) [OX885-560] | 96.5% | CD4 | CD4 | 0.83% |  |  |  |  | 
2 | WRVRIALALKGIDYETVPIN (listed as Homo sapiens) [OX885-559] | 96.5% | CD4 | CD4 | 0.83% |  |  |  |  | 
3 | AGTGLASIIAATMARTVYCT (listed as Homo sapiens) [OX747-191] |  | Likely CD4 | Likely CD4 | Not detected | Not detected | HLA-DR | DRB1*04:04:01/DRB1*13:02:01/DRB3*03:01/DRB4*01:03 | HLA-DR | 
4 | GETGMFSLSTIRGHQYATY (listed as Homo sapiens) [OX289-284] | 96.0% | CD8 | CD8 | 2.78% |  | Class |  | Class I | 96 percent repertoire
5 | DRAEKFNRGIRKLGITPEGQ (listed as Homo sapiens) [OX628-308] | 76.1% | CD4 | CD4 | 1.96% |  |  |  |  | 
6 | LELGAGTGLASIIAATMART (listed as Homo sapiens) [OX747-190] |  | Likely CD4 | Likely CD4 | Not detected | Not detected | HLA-DR | DRB1*04:04:01/DRB1*13:02:01/DRB3*03:01/DRB4*01:03 | HLA-DR | 
7 | PPLYRQRYQFIKNLVDQHEP (listed as Homo sapiens) [OX289-073] |  | CD4 | CD4 | 0.36% |  |  |  |  | 
8 | VATFPVYTMVAIPIVCKD (listed as Homo sapiens) [OX289-067] |  | CD8 | CD8 | 0.55% |  |  |  |  | 81.1 percent repertoire
9 | LGLIFALTLNRHKYPLNLYL (listed as Homo sapiens) [OX747-158] |  | CD4 | CD4 | 0.45% |  |  |  |  | 
10 | VSRPELLRESISAFLVPMPT (listed as Homo sapiens) [OX289-075] |  | CD4 | CD4 | 1.33% |  |  |  |  | 
11 | KVVGARGVGKSAFLQAFLGR (listed as Homo sapiens) [OX813-102] |  | Indeterminate |  | Not detected | Not detected | Indeterminate |  |  | 
12 | KALLKRLLKGMQKKRPSDVQ (listed as Homo sapiens) [OX993-414] |  | Likely CD4 | CD4 | 0.4% |  | HLA-DR | DRB1*01:01/DRB1*11:01/DRB3*02:02/28/29N | HLA-DR | 
13 | GQKSPRFRRVSCFLRLGRST (listed as Homo sapiens) [OX802-321] |  | CD4 | CD4 | 5.47% |  |  |  |  | 
14 | QTVYVQHLITFLDRPIQMCC (listed as Homo sapiens) [OX628-81] |  | CD4 | CD4 | 1.12% |  | HLA-DR | DRB1*03:01/DRB1*15:01/DRB3*01:01/04/DRB5*01:01:01 | HLA-DR | 
15 | PLYRQRYQFIKNLVDQHEPK (listed as Homo sapiens) [OX289-074] |  | CD4 | CD4 | 0.24% |  |  |  |  | 
16 | APISLSSFFNVSTLEREVTD (listed as Homo sapiens) [OX747-185] |  | Likely CD4 | Likely CD4 | Not detected | Not detected | HLA-DR | DRB1*04:04:01/DRB1*13:02:01/DRB3*03:01/DRB4*01:03 | HLA-DR | 
17 | EKFNRGIRKLGITPEGQSYL (listed as Homo sapiens) [OX628-309] | 76.1% | CD4 | CD4 | 1.06% |  |  |  |  | 
18 | NPLSPYLNVDPRYLVQDT (listed as Homo sapiens) [OX289-180] |  | CD4 | CD4 | 0.98% |  | Likely HLA-DR | DRB1*03:01/DRB1*07:01:01/DRB3*02:02/05/11/13/14/17-23/DRB4*01:01-05/07 | HLA-DR | 
19 | PGLISMFSSSQELGAALAQL (listed as Homo sapiens) [OX628-564] |  | Indeterminate |  | Not detected | Not detected |  |  |  | 
20 | RFRRVSCFLRLGRSTLLELE (listed as Homo sapiens) [OX802-322] |  | CD4 | CD4 | 3.23% |  |  |  |  | 
21 | TQRSVLLCKVVGARGVGKSA (listed as Homo sapiens) [OX813-101] |  | Indeterminate |  | Not detected | Not detected | Indeterminate |  |  | 
22 | LGSLGLIFALTLNRHKYPLN (listed as Homo sapiens) [OX747-157] |  | CD4 | CD4 | 0.325% |  |  |  |  | 
23 | LHRDKALLKRLLKGMQKKRP (listed as Homo sapiens) [OX993-413] |  | Likely CD4 | CD4 | 0.4% |  | HLA-DR | DRB1*01:01/DRB1*11:01/DRB3*02:02/28/29N | HLA-DR | 
24 | MNYVSKRLPFAARLNTPMGP (listed as Homo sapiens) [OX1098-614] |  | Indeterminate | Likely CD4 | Not detected | Not detected | Indeterminate |  | HLA-DP | 
25 | ITVQTVYVQHLITFLDRPIQ (listed as Homo sapiens) [OX628-80] |  | CD4 | CD4 | 2.36% |  | HLA-DR | DRB1*03:01/DRB1*15:01/DRB3*01:01/04/DRB5*01:01:01 | HLA-DR | 
26 | VPREYVRALNATKLERVFAK (listed as Homo sapiens) [OX628-305] |  | Indeterminate |  | Not detected | Not detected | Indeterminate |  |  | 
27 | TDRALQNKSISAFLVPMPTP (listed as Homo sapiens) [OX289-205] |  | CD4 | CD4 | 0.89% |  |  |  |  | 
